Data reported in patent publication US11286249B2, “Pyrrolidine compounds” (Eli Lilly and Company, priority 2019, dated 2022).
Where a name gives a salt, the structure may show the parent alone.

Columns and labels:
human Apo(a) protein = human Apo(a) protein (Homo sapiens, UniProt P08519); assay: In vitro Apo(a) binding assay (competitive SPA radioligand binding); conditions: human Apo(a) with 17 Kringle repeats; geometric mean ± SEM (n)
Method: The in vitro binding affinity of compounds to the intended target human Apo(a) protein is tested in a competitive binding assay. Human Apo(a) protein containing 17 Kringle repeats is affinity purified from conditioned media of transiently transfected HEK-293F cells. All reagents are prepared in assay buffer containing 50 mM Tris-HCl pH 7.4, 0.1% BSA. The binding assay is conducted by adding to each well of a clear-bottom plate […] of (1) test compound in dilution series (final concentration […]), (2) Apo(a) protein (6 ng/well), (3) re-suspended Wheat Germ Agglutinin Polyvinyltoluene SPA beads (20 mg/ml), and (4) the radioligand, tritium-labeled (2S)-3-[3-[2-oxo-3-[3-(tritritiomethoxy)phenyl]imidazolidin-1-yl]phenyl]-2-[(3R)-pyrrolidin-3-yl]propanoic acid; hydrochloride (final concentration 0.52 nM). Plates are incubated for 60 minutes at RT and counted on TRILUX LSC. […] Data are analyzed by fitting to a standard single site binding model and the IC50 for the Example test compound is determined. […] Inhibition of the assembly of the LDL particle with apo(a) through binding to the Apo(a) protein supports a reduction in Lp(a) levels.

plasma Lp(a) = assay: In vivo Lp(a) inhibition in mice; conditions: for Lp(a) inhibition (% at 30 mpk): 30 mpk oral twice a day; for Lp(a) inhibition (% at 30 mpk) / ED50: day 3 at 8 h post morning oral dose; for Lp(a) inhibition (% at 30 mpk) / Lp(a) inhibition (%): mean ± SEM; for ED50: effective dose for 50% Lp(a) inhibition, oral, twice a day, ED50 ± standard error
Method: The ability of compounds to reduce steady-state Lp(a) level in vivo is assessed in a transgenic mouse model capable of producing humanized Lp(a) particles. In vivo effects of Lp(a) disruptor compounds are tested in 7 to 17-month-old female double transgenic mice expressing human apoB-100 and human apo(a) containing 17 Kringle repeats: B6.SJL-Tg(APOB)1102Sgy Tg(Alb-LPA)32Arte. Mice are housed with standard light cycle (12 hrs. light/12 hrs. dark), at RT 72±8° F. and relative humidity of 30˜70%, and with free access to water and normal chow diet (Harlan Tecklad diet 2014). Mice are randomized to treatment groups (n=5/group) 3 to 5 days before the study by body weight and baseline plasma Lp(a) concentration using BRAT (Block Randomized Allocation Tool) for the study. Mice are orally dosed (or subcutaneously where noted) with vehicle (oral dose vehicle: 10 mL/kg, 1% HEC, 0.25% Tween80, 0.01% Antifoam; subcutaneous dose vehicle: 5 mL/kg saline) or test compound at various dose levels twice a day (6:30 am and […]) for 5 days. Blood is collected in heparin-coated capillary tubes via tail bleed. Twenty μL of each blood sample is transferred to a DBS card (Whatman Cat #: WB12 9243) for drug exposure analysis. The remaining blood samples are centrifuged to separate plasma. Lp(a) concentration in plasma is measured using a sandwich ELISA as described for the in vitro Lp(a) assembly assay. The % inhibition for each dose group is determined with the mean the Lp(a) level of the vehicle control group set to 0% inhibition. […] ED50 (effective dose for 50% Lp(a) inhibition) calculations as determined by Threshold Minimum Effective Dose analysis.

[1] = target: assembly of Lp(a) from Apo(a) and the LDL particle (Homo sapiens, UniProt P08519); assay: In vitro Lp(a) assembly assay (cell-free, HepG2 and HEK293 conditioned media, sandwich ELISA); format: biochemical; conditions: inhibition of Lp(a) formation, 37° C. for 2 hrs; geometric mean ± SEM (n)
Sequence of assembly of Lp(a) from Apo(a) and the LDL particle (P08519 20-2040 limits assumed): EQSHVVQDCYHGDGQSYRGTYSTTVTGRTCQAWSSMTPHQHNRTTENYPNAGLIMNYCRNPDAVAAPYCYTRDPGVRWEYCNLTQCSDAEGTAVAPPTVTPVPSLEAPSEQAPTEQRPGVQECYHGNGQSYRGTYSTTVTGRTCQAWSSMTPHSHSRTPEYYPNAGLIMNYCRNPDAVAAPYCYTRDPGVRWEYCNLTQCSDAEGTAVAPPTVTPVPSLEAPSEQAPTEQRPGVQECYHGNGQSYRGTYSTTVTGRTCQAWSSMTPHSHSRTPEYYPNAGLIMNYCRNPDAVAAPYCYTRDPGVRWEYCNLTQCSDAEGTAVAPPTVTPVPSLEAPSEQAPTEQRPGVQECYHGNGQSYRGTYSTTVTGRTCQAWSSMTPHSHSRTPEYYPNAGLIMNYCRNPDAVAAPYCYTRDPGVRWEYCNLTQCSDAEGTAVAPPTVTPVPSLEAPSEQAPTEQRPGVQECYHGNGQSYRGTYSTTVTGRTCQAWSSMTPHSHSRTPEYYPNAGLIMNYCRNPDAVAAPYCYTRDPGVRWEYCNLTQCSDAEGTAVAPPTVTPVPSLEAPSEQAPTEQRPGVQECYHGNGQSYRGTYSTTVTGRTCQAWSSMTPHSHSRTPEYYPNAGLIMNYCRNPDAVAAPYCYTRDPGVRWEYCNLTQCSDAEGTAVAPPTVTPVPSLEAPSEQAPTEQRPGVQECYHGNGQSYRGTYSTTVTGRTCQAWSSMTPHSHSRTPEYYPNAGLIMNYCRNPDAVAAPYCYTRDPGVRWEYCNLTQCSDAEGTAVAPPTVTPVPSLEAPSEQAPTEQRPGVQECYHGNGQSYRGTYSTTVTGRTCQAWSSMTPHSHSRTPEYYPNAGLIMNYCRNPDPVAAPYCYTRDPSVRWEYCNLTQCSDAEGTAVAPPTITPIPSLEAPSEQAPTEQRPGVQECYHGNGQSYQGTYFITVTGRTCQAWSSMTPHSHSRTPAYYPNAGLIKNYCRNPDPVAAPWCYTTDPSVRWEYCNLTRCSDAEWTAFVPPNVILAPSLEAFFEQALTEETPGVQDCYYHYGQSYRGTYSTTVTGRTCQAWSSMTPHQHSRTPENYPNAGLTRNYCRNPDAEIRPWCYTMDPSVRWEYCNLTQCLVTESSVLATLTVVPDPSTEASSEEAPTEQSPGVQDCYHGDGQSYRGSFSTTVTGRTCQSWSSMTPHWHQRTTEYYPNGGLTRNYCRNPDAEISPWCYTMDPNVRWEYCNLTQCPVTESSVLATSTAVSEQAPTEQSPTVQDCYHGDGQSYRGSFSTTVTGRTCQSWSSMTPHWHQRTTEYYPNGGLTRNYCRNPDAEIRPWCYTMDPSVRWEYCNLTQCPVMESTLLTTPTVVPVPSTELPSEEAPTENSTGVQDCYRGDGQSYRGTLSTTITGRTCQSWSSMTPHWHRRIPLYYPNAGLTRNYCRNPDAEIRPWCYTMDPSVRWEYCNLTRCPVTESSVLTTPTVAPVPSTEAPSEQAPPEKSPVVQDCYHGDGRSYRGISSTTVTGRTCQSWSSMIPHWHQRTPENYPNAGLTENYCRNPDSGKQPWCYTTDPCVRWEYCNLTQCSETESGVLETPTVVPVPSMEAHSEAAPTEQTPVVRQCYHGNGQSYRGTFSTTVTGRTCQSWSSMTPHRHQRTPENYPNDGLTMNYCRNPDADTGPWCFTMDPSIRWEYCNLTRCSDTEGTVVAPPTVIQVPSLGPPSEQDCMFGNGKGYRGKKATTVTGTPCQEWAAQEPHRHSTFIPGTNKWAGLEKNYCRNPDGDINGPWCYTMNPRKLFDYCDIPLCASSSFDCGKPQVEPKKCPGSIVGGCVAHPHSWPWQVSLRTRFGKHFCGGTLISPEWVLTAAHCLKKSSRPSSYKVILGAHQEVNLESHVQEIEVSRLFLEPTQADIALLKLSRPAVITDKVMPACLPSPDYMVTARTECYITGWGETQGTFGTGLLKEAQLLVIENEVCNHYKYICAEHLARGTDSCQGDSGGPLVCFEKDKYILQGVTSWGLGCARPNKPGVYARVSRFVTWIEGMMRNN
Method: The ability of compounds to inhibit the formation of Lp(a) particles in vitro is assessed by a cell-free assembly assay. Conditioned media (DMEM supplemented with 10% FBS, 20 mM HEPES, and 1× penicillin/streptomycin) is collected from confluent wild-type HepG2 cells (a source of endogenously expressed ApoB) and from a HEK293 stable cell line expressing human Apo(a) protein containing 17 Kringle repeats (selected on 1 mg/ml geneticin) after 24 hours of culture at 37° C. and 5% CO2. An in vitro assembly assay is conducted by combining equal parts of HepG2 and HEK293 conditioned media with the test compounds added in dilution series (final concentration 0.01˜100 nM). The reaction is incubated at 37° C. for 2 hrs and then stopped with the addition of 6-aminocaproic acid (EACA) to a final concentration of 150 mM. Lp(a) is detected using a sandwich ELISA with an anti-Lp(a) capture antibody and an HRP-conjugated anti-ApoB detection antibody. The ELISA is developed using TMB, stopped using 1 N sulfuric acid, and the signal is read at 450 nm on a Molecular Devices plate reader.

[2] = 30 mg/kg oral twice a day, day 3 at 4 h post morning dose

Sequence of human Apo(a) protein (P08519 20-2040 limits assumed): as above

For `O=C(O)[C@@H](Cc1cccc(CN(Cc2cccc(C[C@H](C(=O)O)[C@H]3CCNC3)c2)Cc2cccc(C[C@H](C(=O)O)[C@H]3CCNC3)c2)c1)[C@H]1CCNC1` [Example 1, (2S)-3-[3-[[Bis[[3-[(2S)-2-carboxy-2-[(3R)-pyrrolidin-3-yl]ethyl]phenyl]methyl]amino]methyl]phenyl]-2-[(3R)-pyrrolidin-3-yl]propanoic acid; tetrahydrochloride], the IC50 (human Apo(a) protein) was less than 314 pM, the “Lp(a) inhibition (% at 30 mpk)” value (plasma Lp(a)) was 91 ± 0.73% and the ED50 (plasma Lp(a)) was 3.3 ± 0.53 mg/kg. The IC50 [1] was 96.3 ± 23.3 pM.
For `O=C(O)[C@@H](Cc1cccc(CNCc2cccc(C[C@H](C(=O)O)[C@H]3CCNC3)c2)c1)[C@H]1CCNC1` [Example 3, (2S)-3-[3-[[[3-[(2S)-2-Carboxy-2-[(3R)-pyrrolidin-3-yl]ethyl]phenyl]methylamino]methyl]phenyl]-2-[(3R)-pyrrolidin-3-yl]propanoic acid; trihydrochloride], the IC50 (human Apo(a) protein) was 2130 ± 159 pM and the IC50 [1] was 934 ± 306 pM.
In the case of `COc1cc(F)cc(CN(Cc2cccc(C[C@H](C(=O)O)[C@H]3CCNC3)c2)Cc2cccc(C[C@H](C(=O)O)[C@H]3CCNC3)c2)c1` [Example 5, (2S)-3-[3-[[[3-[(2S)-2-Carboxy-2-[(3R)-pyrrolidin-3-yl]ethyl]phenyl]methyl-[(3-fluoro-5-methoxy-phenyl)methyl]amino]methyl]phenyl]-2-[(3R)-pyrrolidin-3-yl]propanoic acid; trihydrochloride], the “Lp(a) inhibition (%)” value (plasma Lp(a); 3 mg/kg oral twice a day, day 3 at 4 h post morning dose) is reported as 43.8 ± 4.24% and the IC50 [1] is reported as 170 ± 12.4 pM.
Compound `CC(Cc1cccc(CN(Cc2cccc(CC(C)(C(=O)O)[C@H]3CCNC3)c2)Cc2cccc(CC(C)(C(=O)O)[C@H]3CCNC3)c2)c1)(C(=O)O)[C@H]1CCNC1` (stereo partly drawn) [Example 6, 3-[3-[[bis[[3-[2-carboxy-2-[(3R)-pyrrolidin-3-yl]propyl]phenyl]methyl]amino]methyl]phenyl]-2-methyl-2-[(3R)-pyrrolidin-3-yl]propanoic acid; tetrahydrochloride] has an IC50 (human Apo(a) protein) of less than 314 pM and an IC50 [1] of 108 ± 14.9 pM.
In the case of `O=C(O)[C@@H](Cc1cccc(Oc2cccc(C[C@H](C(=O)O)[C@H]3CCNC3)c2)c1)[C@H]1CCNC1` [Example 7, (2S)-3-[3-[3-[(2S)-2-carboxy-2-[(3R)-pyrrolidin-3-yl]ethyl]phenoxy]phenyl]-2-[(3R)-pyrrolidin-3-yl]propanoicacid; dihydrochloride], the “Lp(a) inhibition (%)” value (plasma Lp(a); 30 mg/kg subcutaneous dosing twice a day, day 3 at 4 h post morning dose) is reported as 44.6 ± 5.0% and the IC50 [1] is reported as 372 ± 46.4 pM.
Compound `O=C(O)[C@@H](Cc1cccc(OCCOc2cccc(C[C@H](C(=O)O)[C@H]3CCNC3)c2)c1)[C@H]1CCNC1` [Example 8, (2S)-3-[3-[2-[3-[(2S)-2-carboxy-2-[(3R)-pyrrolidin-3-yl]ethyl]phenoxy]ethoxy]phenyl]-2-[(3R)-pyrrolidin-3-yl]propanoic acid; dihydrochloride] has an IC50 [1] of 288 ± 190 pM.
With `O=C(O)[C@@H](Cc1cccc(COc2cccc(C[C@H](C(=O)O)[C@H]3CCNC3)c2)c1)[C@H]1CCNC1` [Example 9, (2S)-3-[3-[[3-[(2S)-2-Carboxy-2-[(3R)-pyrrolidin-3-yl]ethyl]phenoxy]methyl]phenyl]-2-[(3R)-pyrrolidin-3-yl]propanoic acid; dihydrochloride] the “Lp(a) inhibition (%)” value (plasma Lp(a); [2]) was 56.5 ± 2.77% and the IC50 [1] was 359 ± 29.2 pM.
In the case of `O=C(O)[C@@H](Cc1cccc(Sc2cccc(C[C@H](C(=O)O)[C@H]3CCNC3)c2)c1)[C@H]1CCNC1` [Example 10, (2S)-3-[3-[3-[(2S)-2-Carboxy-2-[(3R)-pyrrolidin-3-yl]ethyl]phenyl]sulfanylphenyl]-2-[(3R)-pyrrolidin-3-yl]propanoic acid; dihydrochloride], the “Lp(a) inhibition (%)” value (plasma Lp(a); [2]) is reported as 43.6 ± 4.6% and the IC50 [1] is reported as 360 ± 119 pM.
Compound `O=C(O)[C@@H](Cc1cccc([S+]([O-])c2cccc(C[C@H](C(=O)O)[C@H]3CCNC3)c2)c1)[C@H]1CCNC1` [Example 11, (2S)-3-[3-[3-[(2S)-2-Carboxy-2-[(3R)-pyrrolidin-3-yl]ethyl]phenyl]sulfinylphenyl]-2-[(3R)-pyrrolidin-3-yl]propanoic acid; dihydrochloride] has an IC50 [1] of 396 ± 241 pM.
With `O=C(O)[C@@H](Cc1cccc(S(=O)(=O)c2cccc(C[C@H](C(=O)O)[C@H]3CCNC3)c2)c1)[C@H]1CCNC1` [Example 12, (2S)-3-[3-[3-[(2S)-2-Carboxy-2-[(3R)-pyrrolidin-3-yl]ethyl]phenyl]sulfonylphenyl]-2-[(3R)-pyrrolidin-3-yl]propanoicacid; dihydrochloride] the “Lp(a) inhibition (%)” value (plasma Lp(a); 30 mg/kg oral twice a day, day 3, samples taken at 8 h post oral dosing) was 50 ± 3.82^3% and the IC50 [1] was 235 ± 50.9 pM.
For `O=C(O)[C@@H](Cc1cccc(CNc2cccc(C[C@H](C(=O)O)[C@H]3CCNC3)c2)c1)[C@H]1CCNC1` [Example 13, (2S)-3-[3-[[3-[(2S)-2-Carboxy-2-[(3R)-pyrrolidin-3-yl]ethyl]anilino]methyl]phenyl]-2-[(3R)-pyrrolidin-3-yl]propanoicacid; trihydrochloride], the IC50 [1] was 2390 ± 610 pM.
With `O=C(O)[C@@H](Cc1cccc(Nc2cccc(C[C@H](C(=O)O)[C@H]3CCNC3)c2)c1)[C@H]1CCNC1` [Example 14, (2S)-3-[3-[3-[(2S)-2-Carboxy-2-[(3R)-pyrrolidin-3-yl]ethyl]anilino]phenyl]-2-[(3R)-pyrrolidin-3-yl]propanoic acid; dihydrochloride] the IC50 (human Apo(a) protein) was less than 314 pM, the “Lp(a) inhibition (% at 30 mpk)” value (plasma Lp(a)) was 72 ± 2.23% and the ED50 (plasma Lp(a)) was 14.6 ± 2.48 mg/kg. The IC50 [1] was 348 ± 98.4 pM.
Work on `CN1CC[C@H]([C@H](Cc2cccc(Nc3cccc(C[C@H](C(=O)O)[C@H]4CCN(C)C4)c3)c2)C(=O)O)C1` [Example 15, (2S)-3-[3-[3-[(2S)-2-carboxy-2-[(3R)-1-methylpyrrolidin-3-yl]ethyl]anilino]phenyl]-2-[(3R)-1-methylpyrrolidin-3-yl]propanoic acid; dihydrochloride] yielded an IC50 [1] of 54600 ± 9150 pM.
`O=C(O)[C@@H](Cc1cccc(NS(=O)(=O)Nc2cccc(C[C@H](C(=O)O)[C@H]3CCNC3)c2)c1)[C@H]1CCNC1` [Example 16, (2S,2′S)-3,3′-[Sulfonylbis(azanediyl-3,1-phenylene)]bis{2-[(3R)-pyrrolidin-3-yl]propanoic acid}; dihydrochloride] gave an IC50 [1] of 563 ± 119 pM.
For `Cl.O=C(O)[C@@H](Cc1ccccc1)[C@H]1CCNC1` [Example 17, (2S)-3-Phenyl-2-[(3R)-pyrrolidin-3-yl]propanoic acid; hydrochloride], the “Lp(a) inhibition (% at 30 mpk)” value (plasma Lp(a)) was 60 ± 3.46% and the ED50 (plasma Lp(a)) was 20.6 ± 1.79 mg/kg.
`Cl.O=C(O)[C@H](Cc1ccccc1)[C@@H]1CCNC1` [Example 18, (2R)-3-Phenyl-2-[(3S)-pyrrolidin-3-yl]propanoic acid; hydrochloride] was tested, and the “Lp(a) inhibition (% at 30 mpk)” value (plasma Lp(a)) was 68 ± 1.82% and the ED50 (plasma Lp(a)) was 7.6 ± 2.43 mg/kg.
